In the supplement of paper PMC10307832:

Legend:
Test in all cases: relative viability (nuclei count vs DMSO), 5 days (fraction); higher = more cells survive
Crizotinib + Alpelisib = compound: C[C@@H](Oc1cc(-c2cnn(C3CCNCC3)c2)cnc1N)c1c(Cl)ccc(F)c1Cl [Crizotinib] + Cc1nc(NC(=O)N2CCC[C@H]2C(N)=O)sc1-c1ccnc(C(C)(C)C(F)(F)F)c1 [Alpelisib] (partner 2 µM)
Summary of the method: (§1)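 Nuclei were stained with Hoechst during a one-step fixation (final 0.05% Triton X-100, 1% formaldehyde, 1 ug/ml Hoechst) carried out 5 days after dosing, then counted on 4× images. The cells, lung cancer lines in 1536-well plates, had been dosed by pin tool the day after seeding with one drug alone or a fixed anchor-drug dose plus five library-drug doses (not always all listed) in √10 steps. Relative viability is the nuclei count in treated wells divided by that in vehicle wells, and each value is the median of duplicate plates.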

Olaparib + Pictilisib = compound: O=C(c1cc(Cc2n[nH]c(=O)c3ccccc23)ccc1F)N1CCN(C(=O)C2CC2)CC1 [Olaparib] + CS(=O)(=O)N1CCN(Cc2cc3nc(-c4cccc5[nH]ncc45)nc(N4CCOCC4)c3s2)CC1 [Pictilisib] (partner 1 µM)
Summary of the method: as §1

Crizotinib + Foretinib = compound: C[C@@H](Oc1cc(-c2cnn(C3CCNCC3)c2)cnc1N)c1c(Cl)ccc(F)c1Cl [Crizotinib] + COc1cc2c(Oc3ccc(NC(=O)C4(C(=O)Nc5ccc(F)cc5)CC4)cc3F)ccnc2cc1OCCCN1CCOCC1 [Foretinib] (partner 0.25 µM)
Summary of the method: as §1

Carfilzomib + Alpelisib = compound: CC(C)C[C@H](NC(=O)[C@H](CCc1ccccc1)NC(=O)CN1CCOCC1)C(=O)N[C@@H](Cc1ccccc1)C(=O)N[C@@H](CC(C)C)C(=O)[C@@]1(C)CO1 [Carfilzomib] + Cc1nc(NC(=O)N2CCC[C@H]2C(N)=O)sc1-c1ccnc(C(C)(C)C(F)(F)F)c1 [Alpelisib] (partner 2 µM)
Summary of the method: as §1

Cell Line	relative viability (Crizotinib + Alpelisib; first compound 0.01 µM)	relative viability (Crizotinib + Alpelisib; first compound 0.03162 µM)	relative viability (Crizotinib + Alpelisib; first compound 0.1 µM)	relative viability (Crizotinib + Alpelisib; first compound 0.3162 µM)	relative viability (Crizotinib + Alpelisib; first compound 1 µM)	relative viability (Olaparib + Pictilisib; first compound 0.08 µM)	relative viability (Olaparib + Pictilisib; first compound 0.253 µM)	relative viability (Olaparib + Pictilisib; first compound 2.53 µM)	relative viability (Olaparib + Pictilisib; first compound 8 µM)	relative viability (Crizotinib + Foretinib; first compound 0.01 µM)	relative viability (Crizotinib + Foretinib; first compound 0.03162 µM)	relative viability (Crizotinib + Foretinib; first compound 0.3162 µM)	relative viability (Crizotinib + Foretinib; first compound 1 µM)	relative viability (Carfilzomib + Alpelisib; first compound 0.001 µM)	relative viability (Carfilzomib + Alpelisib; first compound 0.003162 µM)	relative viability (Carfilzomib + Alpelisib; first compound 0.01 µM)	relative viability (Carfilzomib + Alpelisib; first compound 0.03162 µM)	relative viability (Carfilzomib + Alpelisib; first compound 0.1 µM)	relative viability (Crizotinib + Foretinib; first compound 0.1 µM)
PC-14	0.914	0.921	0.931	0.845	0.911	0.872	0.59	0.601	0.466	0.894	1.01	0.926	0.999	0.958	0.981	0.976	0.0805	0.0691	–
RERF-LC-KJ	0.702	0.847	0.82	0.816	–	0.491	0.522	0.648	0.526	0.824	0.896	0.817	0.887	0.847	0.873	0.842	0.645	0.227	1.33
SK-LU-1	0.989	1.04	1.11	1.17	–	0.608	0.569	0.602	0.353	0.822	0.778	0.902	0.848	1.05	1	0.712	0.182	0.143	0.787
SK-MES-1	0.775	0.929	0.79	0.803	–	0.399	0.297	0.355	0.328	0.875	0.919	0.798	0.843	0.867	1.04	0.992	0.782	0.162	0.941
SW 1573	0.663	0.896	0.638	0.732	0.779	0.526	–	0.508	0.381	0.85	0.762	0.77	0.98	0.731	0.835	0.642	0.19	0.096	0.905
UMC-11	0.961	0.921	0.968	0.956	0.974	0.909	0.687	0.658	0.307	1.01	1.04	1.04	1.02	1.01	0.976	0.947	1.03	0.152	1.07
